ChEMBL document CHEMBL3885861, “Open TG-GATES”

Species: Rattus norvegicus
Assay: Open TG-GATES - Regimen: Daily Repeat
Format: toxicity, organism-based, Sprague-Dawley
Design: regimen Daily Repeat, gender Male, age 6 weeks
Settings: in vivo, po, 300 mg/kg, route gavage, dose level Middle; for APTT / Bas / Eos / Fbg / Hb / Ht / Lym / MCH / MCHC / MCV / Mono / Neu / PT / Plat / RBC / Ret / WBC: tissue Blood
[1] = 72 h, tissue Kidney, time 3 day
[2] = 72 h, tissue Plasma, time 3 day

## CC(=O)[C@@]1(O)CC[C@H]2[C@@H]3C=C(Cl)C4=CC(=O)CC[C@]4(C)[C@H]3CC[C@@]21C [CHLORMADINONE]
72 h, time 3 day
  TERMINAL_BW: 228.1 g
  APTT: 27.6 s
  Bas: 0%
  Eos: 1%
  Fbg: 334.4 mg/dL
  Hb: 14.1 g/dL
  Ht: 42.3%
  Lym: 76.8%
  MCH: 20.6 pg
  MCHC: 33.2%
  MCV: 62 fL
  Mono: 3.4%
  Neu: 18.4%
  PT: 14.8 s
  Plat: 130.2 x10_4/uL
  RBC: 684 x10_4/ul
  Ret: 5.9%
  WBC: 96.1 x10_2/uL
[1]
  KIDNEY_L: 1 g
  KIDNEY_R: 1 g
  KIDNEY_TOTAL: 1.9 g
72 h, tissue Liver, time 3 day
  LIVER: 11 g
[2]
  A/G: 1.2
  ALP: 1623.2 IU/L
  ALT: 51 IU/L
  AST: 76.4 IU/L
  BUN: 17.2 mg/dL
  CRE: 0.2 mg/dL
  Ca: 11 mg/dL
  Cl: 106 meq/L
  DBIL: 0 mg/dL
  GLC: 194.2 mg/dL
  IP: 7.5 mg/dL
  K: 4.6 meq/L
  LDH: 243.2 IU/L
  Na: 141.4 meq/L
  PL: 172.4 mg/dL
  RALB: 3.2 g/dL
  TBIL: 0.008 mg/dL
  TC: 77 mg/dL
  TG: 181.4 mg/dL
  TP: 5.8 g/dL
  gamma-GTP: 1.4 IU/L
[…], time 7 day
  TERMINAL_BW: 257.8 g
  APTT: 29.5 s
  Bas: 0%
  Eos: 0.6%
  Fbg: 335.8 mg/dL
  Hb: 14.7 g/dL
  Ht: 42.9%
  Lym: 86%
  MCH: 20.8 pg
  MCHC: 34.2%
  MCV: 60.9 fL
  Mono: 2.4%
  Neu: 10.2%
  PT: 14.8 s
  Plat: 129.9 x10_4/uL
  RBC: 704.2 x10_4/ul
  Ret: 4.3%
  WBC: 119.7 x10_2/uL
[…], time 14 day
  TERMINAL_BW: 297.5 g
  APTT: 28.4 s
  Bas: 0%
  Eos: 1%
  Fbg: 326.6 mg/dL
  Hb: 15.2 g/dL
  Ht: 44.7%
  Lym: 78%
  MCH: 19.3 pg
  MCHC: 34%
  MCV: 56.8 fL
  Mono: 2.6%
  Neu: 17.6%
  PT: 14.8 s
  Plat: 105.8 x10_4/uL
  RBC: 787.4 x10_4/ul
  Ret: 3.1%
  WBC: 84.6 x10_2/uL
[…], time 28 day
  TERMINAL_BW: 346.1 g
  APTT: 28 s
  Bas: 0%
  Eos: 1%
  Fbg: 313.2 mg/dL
  Hb: 16.2 g/dL
  Ht: 46.4%
